Source: patent US20090275667A1, “USE OF ALLICIN AS PRESERVATIVE, AS DISINFECTANT, AS ANTIMICROBIAL OR AS BIOCIDAL AGENT” (Stone Island Holdings Ltd, priority 2003, published 2009)
Where “and” joins values, the source holds several entries; their conditions need not be identical. Identical values can stand only once.

Assays:
[1] = system: protozoal parasite associated with Leishmaniasis; assay: Confirmatory in vitro test against the Leishmaniasis parasite; type: cell-based, Leishmania; conditions: allicin 5.0 gm per litre
From the text: Confirmatory in vitro tests at the University of East London using allicin at a concentration of 5.0 gm per litre has killed the protozoal parasite associated with Leishmaniasis. Taken with extrapolation of the results from the laboratory studies described in PCT/GB2002/004309, we believe that allicin at a concentration of 5000 ppm has efficacy as an antiprotozoal agent.

Ascosphaera aggregata = assay: Disk diffusion test (Kirby-Bauer), zone of inhibition; type: cell-based; conditions: 6 mm paper disc containing 250 μg of allicin
Protocol: (§1) Allicin (Allisure™ Liquid) was tested against bacterial and fungal pathogens using a standard disk diffusion method (per Norrell & Messley). The aliquots of bacterial or fungal spores (100 μl of approximately 10^8-10^9 spores/ml) were plated on Mueller-Hinton agar medium, 4.0 mm depth. The 6 mm paper discs containing 250 μg of allicin or 5 μg of tylosin (positive control) were placed in the center of each plate. Plates were incubated at 33° C. and 6% CO2 and a zone of inhibition was measured 24 h, 48 h or 76 h post inoculation depending on the microbial species. All experiments were replicated at least three times.

Ascosphaera apis = assay: as above; type: cell-based; conditions: 6 mm paper disc containing 250 μg of allicin
Protocol: as §1

[2] = system: Paenibacillus larvae subsp. larvae; assay: as above; type: cell-based; conditions: 6 mm paper disc containing 250 μg of allicin
Protocol: as §1

[3] = system: Brevibacillus laterosporus; assay: Inhibition of bacterial growth in broth by Allicin (Study 2); type: cell-based; set-up: key: +: Growth present; +^a: weak growth seen, occurred later than lower concentrations; conditions: 34° C.
Protocol: (§2) Allicin liquid (nominal concentration=1000 ppm. ai) was obtained from Allicin International Ltd and kept refrigerated.
(§3) The bacteria tested were Paenibacillus larvae subsp. larvae, Melissococcus plutonium, Brevibacillus laterosporus and Paenibacillus alvei. All isolates were freshly isolated from diseased material sent to the NBU diagnostic laboratory.
(§4) P. larvae subsp. larvae, B. laterosporus and P. alvei were grown on brain heart infusion plus thiamine (BHIT) agar and broth (SOP NBU/014) under aerobic conditions and M. plutonius was grown on SYPG agar and broth (SOP NBU/015) under anaerobic conditions. All experiments were carried out at 34° C. The concentrations of Allicin liquid investigated were 500, 250, 100, 50, 25 and 10 ppm. Broth was made up at twice the usual concentration, so that when the Allicin-containing component was added, the medium was at the correct strength for bacterial growth. Allicin solution was diluted in sterile deionised water to give the desired concentration when added to autoclaved broth. […] Further controls were included, which were the media plus an appropriate volume of Allicin, but not inoculated with bacteria. This would indicate if there were any bacteria present in the test item that may influence the results seen. Both aerobic and anaerobic controls were included.
(§5) Bacteria were isolated from diseased samples and subcultured on agar plates until pure, when they were inoculated into broth cultures. Cultures of M. plutonius were isolated anaerobically, then plated out and incubated both aerobically and anaerobically, to confirm that the isolate investigated was this bacterium. A similar microbe, Enterococcus faecalis, can sometimes be isolated from EFB-infected samples and is morphologically difficult to distinguish from M. plutonius. However, the former bacterium grows very well aerobically, whereas M. plutonius is unable to replicate. Thus, if an isolate is able to grow aerobically, it is not M. plutonius. This control mechanism was used throughout the experimental procedures to ensure that the correct organism was tested.
(§6) Each bacterium was freshly grown in a test tube containing 5 ml broth. A loopful (5 μl) of this bacterial suspension was removed from the culture and inoculated into each test tube according to SOP NBU/131. The same inoculum source for each strain was used for all Allicin dilutions, and all experiments were done in triplicate.
(§7) Where growth occurred in the presence of Allicin, one replicate from each concentration for each bacterium was plated out on the appropriate agar to identify the bacteria that had grown in the broth, to confirm the results (SOP NBU/131). Once growth was evident on this confirmation plate, the culture was assessed with respect to the colony morphology and Gram stained (according to SOP NBU/111) as a further confirmatory test. This is a suitable method as each bacterium tested has distinctive morphology both macro- and microscopically.

Melissococcus plutonius = assay: as above; type: cell-based; set-up: key: +: Growth present; +^a: weak growth seen, occurred later than lower concentrations; conditions: 34° C.
Protocol: as §2, §3, §4, §5, §6, §7

Paenibacillus alvei = assay: as above; type: cell-based; set-up: key: +: Growth present; +^a: weak growth seen, occurred later than lower concentrations; conditions: 34° C.
Protocol: as §2, §3, §4, §5, §6, §7

[4] = system: Paenibacillus larvae subsp. larvae; assay: as above; type: cell-based; set-up: key: +: Growth present; +^a: weak growth seen, occurred later than lower concentrations; conditions: 34° C.
Protocol: as §2, §3, §4, §5, §6, §7

B. laterosporus = assay: Investigation into bacteriostatic or bactericidal effects (Study 2); type: cell-based, Brevibacillus laterosporus; conditions: conclusion from subculture into fresh media
Protocol: Where there was no growth in a replicate, at the end of one week the culture was plated out for single colonies on the appropriate agar. This was to determine whether the test item had bactericidal activity, where all the bacterial cells are killed, or bacteriostatic action, where the cells are unable to replicate in the presence of the substance, but will grow when it is removed. A further test, where 0.5 ml of the broth was transferred into 4.5 ml fresh broth (giving a 1:10 dilution) was also undertaken. There would still be some Allicin in the broth, but it should be present at a low enough concentration for growth not to be affected. Where growth occurred in the absence of Allicin, the broth was examined microscopically and plated out for single colonies to confirm the identity of the bacterium.

## C=CCS[S+]([O-])CC=C (stereo not shown) [allicin, Allicin]
[1]
  killing of the protozoal parasite: killed
Ascosphaera aggregata
  zone of inhibition: 35-37 mm and 35-38 mm
Ascosphaera apis
  zone of inhibition: 31-35 mm
[2]
  zone of inhibition: 45-50 mm
[3]; 10 ppm
  Growth present at test item concentration: +
[3]; 25 ppm
  Growth present at test item concentration: +
[3]; 50 ppm
  Growth present at test item concentration: +
[3]; 100 ppm
  Growth present at test item concentration: +^a
Melissococcus plutonius; 10 ppm
  Growth present at test item concentration: +
Melissococcus plutonius; 25 ppm
  Growth present at test item concentration: +
Melissococcus plutonius; 50 ppm
  Growth present at test item concentration: +
Melissococcus plutonius; 100 ppm
  Growth present at test item concentration: +^a
Paenibacillus alvei; 10 ppm
  Growth present at test item concentration: +
Paenibacillus alvei; 25 ppm
  Growth present at test item concentration: +
Paenibacillus alvei; 50 ppm
  Growth present at test item concentration: +
Paenibacillus alvei; 100 ppm
  Growth present at test item concentration: +^a
[4]; 10 ppm
  Growth present at test item concentration: +
[4]; 25 ppm
  Growth present at test item concentration: +^a
B. laterosporus
  bacteriostatic or bactericidal effect: did not kill all bacteria
